Results taken from the NIST ThermoML archive (doi:10.1021/acs.jced.6b00232).

Assay: mn = molality of the nth substance listed, in mol/kg
Conditions: 84.5 kPa, Liquid; for speed of sound: Frequency=3 MHz, Sing-around technique in a fixed-path interferometer; for mass density: Vibrating tube method

O=C(CO)[C@@H](O)[C@H](O)[C@H](O)CO [D-fructose] + O
Conditions | mass density, 288.15 K [kg/m3] | mass density, 293.15 K [kg/m3] | mass density, 298.15 K [kg/m3] | mass density, 303.15 K [kg/m3] | mass density, 308.15 K [kg/m3] | speed of sound, 288.15 K [m/s] | speed of sound, 293.15 K [m/s] | speed of sound, 298.15 K [m/s] | speed of sound, 303.15 K [m/s] | speed of sound, 308.15 K [m/s]
m1 = 0.1716 | – | – | 1008.73 | – | – | 1478.9 | 1494.4 | 1508 | 1519.8 | 1529.9
m1 = 0.2312 | 1015.03 | 1013.99 | 1012.69 | – | 1009.43 | 1483.2 | 1498.5 | 1511.8 | – | 1533.4
m1 = 0.292 | 1019.08 | 1018 | 1016.66 | 1015.1 | 1013.34 | 1487.5 | – | 1515.7 | 1527.1 | 1536.9
m1 = 0.4825 | 1031.39 | 1030.21 | 1028.76 | 1027.1 | 1025.25 | 1500.9 | 1515.3 | – | – | 1547.8
m1 = 0.6161 | 1039.7 | 1038.45 | 1036.93 | 1035.21 | 1033.29 | 1510.2 | 1524.1 | 1536.2 | 1546.5 | 1555.3
m1 = 0.9787 | 1061.06 | 1059.67 | 1057.92 | 1056.02 | 1053.95 | 1534.7 | 1547.5 | 1558.4 | 1567.7 | 1575.5
m1 = 1.386 | 1083.13 | 1081.5 | 1079.62 | 1077.55 | 1075.32 | 1561.6 | 1572.9 | 1582.5 | 1590.7 | 1597.3
m1 = 1.851 | 1106.02 | 1104.26 | 1102.2 | 1099.94 | 1097.55 | 1588.9 | 1599.1 | 1607.5 | 1614.3 | 1619.9
m1 = 2.379 | 1129.63 | 1127.76 | 1125.52 | 1123.09 | 1120.53 | 1622.1 | 1630.8 | 1637.6 | 1643 | 1647.2
m1 = 2.981 | 1153.68 | 1151.66 | 1149.24 | 1146.65 | 1143.92 | 1655.5 | 1662.7 | 1668 | 1671.9 | 1674.7
m1 = 3.667 | 1178.12 | 1175.94 | 1173.34 | 1170.58 | 1167.69 | 1691 | 1696.5 | 1700.1 | 1702.5 | 1703.9

O=C[C@H](O)[C@@H](O)[C@H](O)[C@H](O)CO [D-glucose] + O
Conditions | mass density, 288.15 K [kg/m3] | mass density, 293.15 K [kg/m3] | mass density, 298.15 K [kg/m3] | mass density, 303.15 K [kg/m3] | mass density, 308.15 K [kg/m3] | speed of sound, 288.15 K [m/s] | speed of sound, 293.15 K [m/s] | speed of sound, 298.15 K [m/s] | speed of sound, 303.15 K [m/s] | speed of sound, 308.15 K [m/s]
m1 = 0.2921 | 1018.67 | 1017.62 | 1016.34 | 1014.83 | 1013.12 | – | 1501 | 1514.3 | 1526 | 1535.9
m1 = 0.4836 | 1030.78 | 1029.64 | 1028.28 | 1026.7 | 1024.93 | 1498.4 | 1513 | 1525.9 | 1537.1 | 1546.6
m1 = 0.6164 | 1038.85 | 1037.66 | 1036.24 | 1034.62 | 1032.81 | 1507 | 1521.3 | 1533.9 | 1544.7 | 1554
m1 = 0.9795 | 1059.74 | 1058.4 | 1056.86 | 1055.12 | 1053.22 | 1530.3 | – | 1555.2 | 1565.2 | 1573.6
m1 = 1.388 | 1081.24 | 1079.76 | 1078.09 | 1076.24 | 1074.24 | 1555.6 | 1567.8 | 1578.4 | 1587.4 | 1595
m1 = 1.85 | 1103.58 | 1101.95 | 1100.14 | 1098.18 | 1096.07 | 1583.6 | 1594.7 | 1604.2 | 1612.2 | 1618.8
m1 = 2.379 | 1126.54 | 1124.77 | 1122.85 | 1120.79 | 1118.58 | 1613.6 | 1623.3 | 1631.7 | 1638.6 | 1644.3
m1 = 2.989 | 1150.24 | 1148.34 | 1146.3 | 1144.14 | 1141.85 | 1646 | 1654.4 | 1661.4 | 1667.2 | 1671.8
m1 = 3.7 | 1174.74 | 1172.71 | 1170.56 | 1168.3 | 1165.92 | 1681.2 | 1688 | 1693.8 | 1698.3 | 1701.8
